Data published in the supplement of paper PMC4862054.

Experiments:
Conditions in all cases: incubation time: 72 h
[1] = test system: BT-549; assay: drug sensitivity score (DSS), CellTiter-Glo (DSS (AUC-based score)); higher = stronger drug effect (viability inhibition or cytotoxicity); extreme values may be limits of the assay
Outline: (§1)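 Each compound occupied 5 concentrations in 10-fold steps over its own 10,000-fold range in 384-well plates, into which breast cancer cell lines were seeded as 20 µl suspension. Following 72 h of incubation, CellTox Green fluorescence (485/520 nm) was measured, and CellTiter-Glo luminescence was measured after 10 min at room temperature. Plates were individually normalised to 0.1 % DMSO and a positive kill control. From the area under the fitted dose-response curve, a drug sensitivity score was calculated.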

[2] = test system: CAL-120; assay: as above
Outline: as §1

[3] = test system: DU-4475; assay: as above
Outline: as §1

[4] = test system: HCC1143; assay: as above
Outline: as §1

[5] = test system: HCC1937; assay: as above
Outline: as §1

[6] = test system: Hs578T; assay: as above
Outline: as §1

[7] = test system: MFM-223; assay: as above
Outline: as §1

[8] = test system: BT-474; assay: drug sensitivity score (DSS), CellTox Green (DSS (AUC-based score)); higher = stronger drug effect (viability inhibition or cytotoxicity); extreme values may be limits of the assay
Outline: as §1

[9] = test system: BT-549; assay: as above
Outline: as §1

[10] = test system: CAL-120; assay: as above
Outline: as §1

[11] = test system: CAL-148; assay: as above
Outline: as §1

[12] = test system: CAL-51; assay: as above
Outline: as §1

[13] = test system: CAL-85-1; assay: as above
Outline: as §1

[14] = test system: DU-4475; assay: as above
Outline: as §1

[15] = test system: HCC1143; assay: as above
Outline: as §1

[16] = test system: HCC1599; assay: as above
Outline: as §1

[17] = test system: HCC1937; assay: as above
Outline: as §1

[18] = test system: HDQ-P1; assay: as above
Outline: as §1

[19] = test system: Hs578T; assay: as above
Outline: as §1

[20] = test system: MCF-10A; assay: as above
Outline: as §1

[21] = test system: MDA-MB-231; assay: as above
Outline: as §1

[22] = test system: MDA-MB-436; assay: as above
Outline: as §1

[23] = test system: MDA-MB-453; assay: as above
Outline: as §1

[24] = test system: MDA-MB-468; assay: as above
Outline: as §1

[25] = test system: MFM-223; assay: as above
Outline: as §1

| Compound | drug sensitivity score [1] | drug sensitivity score [2] | drug sensitivity score [3] | drug sensitivity score [4] | drug sensitivity score [5] | drug sensitivity score [6] | drug sensitivity score [7] | drug sensitivity score [8] | drug sensitivity score [9] | drug sensitivity score [10] | drug sensitivity score [11] | drug sensitivity score [12] | drug sensitivity score [13] | drug sensitivity score [14] | drug sensitivity score [15] | drug sensitivity score [16] | drug sensitivity score [17] | drug sensitivity score [18] | drug sensitivity score [19] | drug sensitivity score [20] | drug sensitivity score [21] | drug sensitivity score [22] | drug sensitivity score [23] | drug sensitivity score [24] | drug sensitivity score [25] |
| --- | --- | --- | --- | --- | --- | --- | --- | --- | --- | --- | --- | --- | --- | --- | --- | --- | --- | --- | --- | --- | --- | --- | --- | --- | --- |
| COc1ccc(-c2cc3c(C)nc(N)nc3n([C@H]3CC[C@H](OCCO)CC3)c2=O)cn1 | 18.7 | 17.1 | 12.4 | 17.2 | 15.1 | 18 | 17 | 11.5 | 5.99 | 0 | 12.3 | 12.5 | 4.01 | 0 | 0 | 0 | 1.39 | 6.58 | 2 | 0 | 14.1 | 0 | 0 | 0 | 0 |
| Cc1c(Cn2c(C)nc3c(C(=O)O)cc(N4CCOCC4)cc32)cccc1C(F)(F)F | 3.9 | 0 | 0 | 0 | 0 | 0 | 0 | 0 | 0 | 0 | 0 | 0 | 0 | 0 | 0 | 0 | 0 | 0 | 0 | 0 | 0 | 0 | 0 | 0 | 0 |
| CC/C(=C(\c1ccc(O)cc1)c1ccc(OCCN(C)C)cc1)c1ccccc1 [4-hydroxytamoxifen] | 2.89 | 1.84 | 0 | 0 | 3.45 | 0 | 1.9 | 3.8 | 0 | 1.11 | 0 | 0 | 1.62 | 0 | 1.54 | 0 | 8.17 | 0 | – | 0 | 4.16 | 0.732 | 1 | 21 | 0 |
| CCCCC/C=C/C=C1/C(=O)C=C[C@@H]1C/C=C\CCCC(=O)O [15D-PGJ2] | 0 | 0 | 0 | 0 | 0 | 0 | 0 | 0 | 0 | 0 | 0 | 0 | 0 | 0 | 0 | 0 | 0 | 0 | 0 | 0 | 0 | 0 | 0 | 0 | 0 |
| O=C(Nc1c[nH]nc1-c1nc2ccc(CN3CCOCC3)cc2[nH]1)NC1CC1 [AT9283] | 4.94 | 5.15 | 1.31 | 2.84 | 0 | 4.11 | 1.08 | 0 | 0 | 3.42 | 0 | 14 | – | 0 | 0 | 0 | 0 | 0 | 0.649 | 0 | 14.3 | 0 | 0 | 13.2 | 0 |
| COc1cc(CCc2cc(NC(=O)c3ccc(N4CC(C)NC(C)C4)cc3)n[nH]2)cc(OC)c1 (stereo not drawn) [AZD4547] | 0.487 | 3.61 | 0 | 0 | 0 | 0.967 | 12.2 | 0 | 0 | 0.0106 | 0.783 | 0 | 0 | 0 | 3.67 | 0 | 0 | 2.76 | 0 | 0 | 0 | 0 | 0 | 0 | 0 |
| CC(=O)OC[C@H]1O[C@@H]([S-])[C@H](OC(C)=O)[C@@H](OC(C)=O)[C@@H]1OC(C)=O.CCP(CC)CC.[Au+] [Auranofin] | 9.2 | 0.998 | 1.74 | 5.15 | 7.45 | 3.87 | 2.71 | 3.42 | 4.41 | 0.776 | 0.881 | 3.46 | 4.88 | 0 | 0.33 | 0 | 4.79 | 6.27 | 0 | 0 | 3.16 | 0 | 1.98 | 9.05 | 1.22 |
| CCC/C=C/C=C/C(=O)O[C@H]1/C(=C/C(=O)OC)C[C@H]2C[C@H]([C@@H](C)O)OC(=O)C[C@H](O)C[C@@H]3C[C@H](OC(C)=O)C(C)(C)[C@](O)(C[C@@H]4C/C(=C/C(=O)OC)C[C@H](/C=C/C(C)(C)[C@]1(O)O2)O4)O3 [Bryostatin 1] | 0.294 | 0 | 0 | 0 | 0 | 4.68 | 0 | 0 | 0 | 0 | 0 | 0 | 0 | 0 | 0 | 0 | 4.81 | 10.8 | 0 | 0 | 0 | – | 0 | 0 | 0 |
| CO[C@@H](C(=O)N1Cc2[nH]nc(NC(=O)c3ccc(N4CCN(C)CC4)cc3)c2C1)c1ccccc1 [Danusertib] | 10.7 | 6.46 | 5.98 | 5.41 | 0 | 3.96 | 14.3 | 0 | 1.26 | 3.17 | 0 | 13.8 | 0 | 0 | 0 | 0 | 1.64 | 0.964 | 15.2 | 0.832 | 0 | 3.88 | 0 | 13.7 | 0 |
| Cc1nc(Nc2ncc(C(=O)Nc3c(C)cccc3Cl)s2)cc(N2CCN(CCO)CC2)n1 [Dasatinib] | 7.26 | 8.55 | 0 | 6.57 | 6.2 | 8.38 | 0 | 0 | 2.37 | 0 | 0 | 6.25 | 6.5 | 0 | 0 | 0 | 0 | 0 | 6.23 | 7.15 | 4.62 | 0 | 0 | 0 | 0 |
| O=S(=O)(c1cccc2cnccc12)N1CCCNCC1 [Fasudil] | 1.25 | 0 | 0.0897 | 0 | 0 | 0.0914 | 0 | 0 | 0 | 0 | 0 | 0 | 0 | 0 | 0 | 0 | 0 | – | 0 | 0 | 2.62 | 0 | 0 | – | 0 |
| Cc1c(CN2CCN(C(=O)[C@H](C)O)CC2)sc2c(N3CCOCC3)nc(-c3cnc(N)nc3)nc12 [GDC-0980] | 13.1 | 10.9 | 6.71 | 11.4 | 6.52 | 12.6 | 12.7 | 4.57 | 0 | 0 | 6.07 | 6.08 | 2.26 | 0 | 3.43 | 0 | 0 | 1.58 | 0 | 0 | 0 | 0 | 0 | 0 | 6 |
| C[C@]12C=CC(=O)C=C1CC[C@@H]1[C@@H]2[C@@H](O)C[C@@]2(C)[C@H]1CC[C@]2(O)C(=O)CO [Prednisolone] | 0 | 5.1 | 0 | 0 | 0 | 0 | 0 | 0 | 0 | 0 | 0 | 0 | 0 | 0 | 1.2 | 0 | 0 | 0.861 | 0 | 0 | 0 | – | 0 | 0 | 0 |
| CC(C)N(CCCNC(=O)Nc1ccc(C(C)(C)C)cc1)C[C@H]1O[C@@H](n2cc(Br)c3c(N)ncnc32)[C@H](O)[C@@H]1O [SGC0946] | 0 | 0 | 0 | 0 | 0 | 0 | 0 | 0 | 0 | 0 | 0 | 0 | 0 | 0 | 0 | 0 | 0 | 0 | – | 0 | 0 | 0 | 0 | 0 | 0 |
